PubChem BioAssay AID256 (DTP/NCI, 2004)
Several values for one entry are separate records, joined by “and”; a condition that tells them apart may be missing. Equal entries are not always repeated. Inconclusive results and toxic doses are left out.

System: CD2F1 mice, L1210 leukemia ip, survival T/C
Assay: NCI In Vivo Anticancer Drug Screen. Data for tumor model L1210 Leukemia (intraperitoneal) in CD2F1 (CDF1) mice
Conditions: higher = longer survival
Method in brief: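 Antitumor effect is scored in animals hosting a serially transplanted tumor. Values compare compound-dosed animals against vehicle-only controls as a simple quotient.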

[1] = endpoint: mean survival time, dose: 100.0 mg/kg/injection, schedule: Q01DX009 (ip), vehicle: saline with Tween-80
[2] = endpoint: mean survival time, dose: 200.0 mg/kg/injection, schedule: Q01DX009 (ip), vehicle: saline with Tween-80

In the case of Nc1ccc(N=Nc2ccc(N(CCCl)CCCl)cc2)cc1, the T/C (endpoint: mean survival time, dose: 33.0 mg/kg/injection, schedule: Q01DX001 (ip), vehicle: Klucel (hydroxypropylcellulose) (HPC)) is reported as 96 % of control, the T/C (endpoint: mean survival time, dose: 66.0 mg/kg/injection, schedule: Q01DX001 (ip), vehicle: Klucel (hydroxypropylcellulose) (HPC)) is reported as 91 % of control and the T/C (endpoint: mean survival time, dose: 132.0 mg/kg/injection, schedule: Q01DX001 (ip), vehicle: Klucel (hydroxypropylcellulose) (HPC)) is reported as 91 % of control.

CS/C(N)=N\C(=O)N(C)C was tested, and the T/C [1] was 98 % of control, the T/C [2] was 110 % of control and the T/C (endpoint: mean survival time, dose: 400.0 mg/kg/injection, schedule: Q01DX009 (ip), vehicle: saline with Tween-80) was 103 % of control.

With CC(=O)CC(=O)C(F)(F)F.CC(=O)CC(=O)C(F)(F)F.[Ni] the T/C (endpoint: median survival time, dose: 25.0 mg/kg/injection, schedule: Q04DX002 (ip), vehicle: saline with Tween-80) was 100 % of control and the T/C (endpoint: median survival time, dose: 50.0 mg/kg/injection, schedule: Q04DX002 (ip), vehicle: saline with Tween-80) was 122 % of control.

With Nc1c(C(=O)O)cnn1CCO the T/C (endpoint: mean survival time, dose: 50.0 mg/kg/injection, schedule: Q04DX003 (ip), vehicle: water) was 94 % of control, the T/C (endpoint: mean survival time, dose: 100.0 mg/kg/injection, schedule: Q04DX003 (ip), vehicle: water) was 100 % of control and the T/C (endpoint: mean survival time, dose: 200.0 mg/kg/injection, schedule: Q04DX003 (ip), vehicle: water) was 100 % of control. The T/C (endpoint: mean survival time, dose: 400.0 mg/kg/injection, schedule: Q04DX003 (ip), vehicle: water) was 97 % of control and 100 % of control and the T/C (endpoint: mean survival time, dose: 700.0 mg/kg/injection, schedule: Q04DX003 (ip), vehicle: water) was 89 % of control.

With CCOC(=O)C#CC1CCCCC1 the T/C (endpoint: mean survival time, dose: 50.0 mg/kg/injection, schedule: Q01DX009 (ip), vehicle: saline with Tween-80) was 98 % of control, the T/C [1] was 98 % of control and the T/C [2] was 102 % of control.

N=C(N)CCCCCCCCC(=N)N was tested, and the T/C (endpoint: mean survival time, dose: 0.78 mg/kg/injection, schedule: Q01DX009 (ip), vehicle: saline) was 162 % of control, the T/C (endpoint: mean survival time, dose: 1.56 mg/kg/injection, schedule: Q01DX009 (ip), vehicle: saline) was 96 % of control and the T/C (endpoint: mean survival time, dose: 3.12 mg/kg/injection, schedule: Q01DX009 (ip), vehicle: saline) was 104 % of control. The T/C (endpoint: mean survival time, dose: 6.25 mg/kg/injection, schedule: Q01DX009 (ip), vehicle: saline) was 106 % of control and the T/C (endpoint: mean survival time, dose: 12.5 mg/kg/injection, schedule: Q01DX009 (ip), vehicle: saline) was 115 % of control.

For C/C(=N\N=C(/C)c1cccc([N+](=O)[O-])c1)c1cccc([N+](=O)[O-])c1, the T/C (endpoint: mean survival time, dose: 100.0 mg/kg/injection, schedule: Q04DX002 (ip), vehicle: Klucel (hydroxypropylcellulose) (HPC)) was 104 % of control, the T/C (endpoint: mean survival time, dose: 200.0 mg/kg/injection, schedule: Q04DX002 (ip), vehicle: Klucel (hydroxypropylcellulose) (HPC)) was 97 % of control and the T/C (endpoint: mean survival time, dose: 400.0 mg/kg/injection, schedule: Q04DX002 (ip), vehicle: Klucel (hydroxypropylcellulose) (HPC)) was 108 % of control.

In the case of S=C(Nc1ccc(Cl)cc1)Nc1ccc(Cc2ccc(NC(=S)Nc3ccc(Cl)cc3)cc2)cc1, the T/C (endpoint: mean survival time, dose: 100.0 mg/kg/injection, schedule: Q01DX001 (ip), vehicle: Klucel (hydroxypropylcellulose) (HPC)) is reported as 93 % of control, the T/C (endpoint: mean survival time, dose: 200.0 mg/kg/injection, schedule: Q01DX001 (ip), vehicle: Klucel (hydroxypropylcellulose) (HPC)) is reported as 92 % of control and the T/C (endpoint: mean survival time, dose: 400.0 mg/kg/injection, schedule: Q01DX001 (ip), vehicle: Klucel (hydroxypropylcellulose) (HPC)) is reported as 93 % of control.

With C=C1C(=O)OC2CC3(C)OC3CC/C(C)=C/C(OC(C)=O)C12 (stereo unspecified) the T/C (endpoint: mean survival time, dose: 100.0 mg/kg/injection, schedule: Q04DX003 (ip), vehicle: saline with Tween-80) was 105 % of control and the T/C (endpoint: mean survival time, dose: 200.0 mg/kg/injection, schedule: Q04DX003 (ip), vehicle: saline with Tween-80) was 91 % of control.

For CCCN=C(N)C(N)=NCCC (tested in a mixture with another compound), the T/C (endpoint: mean survival time, dose: 100.0 mg/kg/injection, schedule: Q04DX002 (ip), vehicle: other) was 106 % of control, the T/C (endpoint: mean survival time, dose: 100.0 mg/kg/injection, schedule: Q04DX002 (ip), vehicle: saline with Tween-80) was 95 % of control and the T/C (endpoint: mean survival time, dose: 200.0 mg/kg/injection, schedule: Q04DX002 (ip), vehicle: other) was 103 % of control. The T/C (endpoint: mean survival time, dose: 200.0 mg/kg/injection, schedule: Q04DX002 (ip), vehicle: saline with Tween-80) was 100 % of control, the T/C (endpoint: mean survival time, dose: 400.0 mg/kg/injection, schedule: Q04DX002 (ip), vehicle: other) was 91 % of control and the T/C (endpoint: mean survival time, dose: 400.0 mg/kg/injection, schedule: Q04DX002 (ip), vehicle: saline with Tween-80) was 91 % of control.

NC(C=O)C(O)C(O)C(O)CO (stereo unspecified) was tested, and the T/C (endpoint: mean survival time, dose: 100.0 mg/kg/injection, schedule: Q04DX002 (ip), vehicle: saline) was 97 % of control, the T/C (endpoint: mean survival time, dose: 200.0 mg/kg/injection, schedule: Q04DX002 (ip), vehicle: saline) was 97 % of control and the T/C (endpoint: mean survival time, dose: 400.0 mg/kg/injection, schedule: Q04DX002 (ip), vehicle: saline) was 97 % of control.

c1ccc(C2=NN(c3ccccc3)C(c3ccccc3)C2NC2CCCCC2)cc1 (stereo unspecified) was tested, and the T/C (endpoint: mean survival time, dose: 100.0 mg/kg/injection, schedule: Q04DX003 (ip), vehicle: acetone) was 93 % of control, the T/C (endpoint: mean survival time, dose: 200.0 mg/kg/injection, schedule: Q04DX003 (ip), vehicle: acetone) was 92 % of control and the T/C (endpoint: mean survival time, dose: 400.0 mg/kg/injection, schedule: Q04DX003 (ip), vehicle: acetone) was 97 % of control.
